Source: US20130072472A1, “N[…] ANSOLVATES” (DemeRx, Inc., priority 2011, published 2013)
Where a name gives a salt, the structure may show the parent alone.

Tests used:
Assay type in all cases: physicochemical
[1] = Approximate aqueous solubility of noribogaine salt forms; conditions: water
[2] = Dynamic vapor sorption (DVS); conditions: for State of the solids after DVS sorption/desorption: post-DVS, 5 to 95 to 5% RH
Experimental: Dynamic vapor sorption (DVS) data were collected on a VTI SOA-100 Vapor Sorption Analyzer. NaCl and PVP were used as calibration standards. Samples were not dried prior to analysis. Sorption and desorption data were collected over a range from 5 to 95% RH at 10% RH increments under a nitrogen purge. The equilibrium criterion used for analysis was less than 0.0100% weight change in 5 minutes with a maximum equilibration time of 3 hours. Data were not corrected for the initial moisture content of the samples.

[3] = Thermogravimetric analysis (TGA); conditions: for TGA sharp weight loss / onset of probable decomposition: TGA thermogram
Experimental: Thermogravimetric analyses were performed using a TA Instruments Q5000 IR thermogravimetric analyzer. Temperature calibration was performed using nickel and Alumel™ Each sample was placed in an aluminum pan. The sample was hermetically sealed, the lid pierced, then inserted into the TO furnace. The furnace was heated under nitrogen.

[4] = Drying of solvated forms, gravimetric weight loss and XRPD; conditions: for gravimetric weight loss: hydrochloride
Experimental: Two other moisture absorbing, unstable, polymorphs of noribogaine hydrochloride, Forms F and G, which had mutually similar XRPD patterns were also identified. Form G was isolated from a slurry of Form A in MeOH at ambient temperature. Material G likely contains MeOH and water, and Form F (or Form II) is likely hydrated. […] A sharp weight loss at ˜312° C. indicated likely decomposition. Both Forms G and F are contemplated to readily pick up moisture from the atmosphere.

[5] = Polymorphic conversion of solvated form on stirring in EtOH/water or heating
Text: Such a desolvation is surprising, given that it occurs upon stirring in another solvent, which comprises hydroxy groups and alkyl moieties as in MeOH. As described above, form F is a solvated polymorph that is obtained from MeOH.

[6] = Approximate ambient-temperature solubility, solvent addition method; conditions: thermodynamic from solid
Experimental: The approximate ambient-temperature solubilities of noribogaine hydrochloride Form A were measured in a variety of solvents and solvent mixtures using the solvent addition method (Table 2).
The solubility of noribogaine hydrochloride ansolvate were determined as tabulated below.

## CC[C@H]1CC2C[C@H]3c4[nH]c5ccc(O)cc5c4CCN(C2)C13 [Sulfate, Form D, noribogaine sulfate ansolvate]
[1]
  Approx. Aqueous Solubility: >80000 µg/mL
[2]; between 75 and 95% RH
  DVS weight gain: approximately 26 wt %
[2]; listed as sulfate salt
  State of the solids after DVS sorption/desorption: deliquesced
[2]; up to 75% RH
  DVS weight gain: about 0.7 wt %
[3]
  TGA sharp weight loss / onset of probable decomposition: approximately 274 °C
[3]; from approximately 160 to 245° C.
  TGA weight loss: 4.9 wt %

## CC[C@H]1CC2C[C@H]3c4[nH]c5ccc(O)cc5c4CCN(C2)C13 [Form F, noribogaine hydrochloride]
[4]
  gravimetric weight loss: 4.1%
[5]; heating
  Polymorphic form change upon heating: converts to the ansolvate form A
[5]; stirring in 9:1 ethyl alcohol and water
  Polymorphic form change upon stirring: converted to the ansolvate form A
[3]; hydrochloride
  TGA sharp weight loss / onset of probable decomposition: ~312 °C

## CC[C@H]1CC2C[C@H]3c4[nH]c5ccc(O)cc5c4CCN(C2)C13 [Tosylate, Form B, tosylate salt of noribogaine]
[1]
  Approx. Aqueous Solubility: 3000 µg/mL

## CC[C@H]1CC2C[C@H]3c4[nH]c5ccc(O)cc5c4CCN(C2)C13 [Phosphate, Form C, noribogaine phosphate]
[1]
  Approx. Aqueous Solubility: 23000 µg/mL
[2]; between 5 and 95% RH
  DVS weight gain: approximately 3.3 wt %
[2]; equilibration to 5% RH
  DVS weight loss upon equilibration: approximately 1 wt %
[2]
  State of the solids after DVS sorption/desorption: remained Form C
[3]
  TGA sharp weight loss / onset of probable decomposition: 241 °C
[3]; from 30 to 140° C.
  TGA weight loss: approximately 1.6%

## CC[C@H]1CC2C[C@H]3c4[nH]c5ccc(O)cc5c4CCN(C2)C13 [HCl, Form A, noribogaine hydrochloride]
[1]; hydrochloride
  Approx. Aqueous Solubility: 1000 to 4000 µg/mL
[2]; between 5 and 95% relative humidity
  DVS weight gain/loss: approximately 0.03%
[6]; aqueous with cosolvent or surfactant or cyclodextrin, ACN:water 80:20, ambient temperature
  solubility: 9000 µg/mL
[6]; aqueous with cosolvent or surfactant or cyclodextrin, Acetone:water 50:50, ambient temperature
  solubility: 11000 µg/mL
[6]; aqueous with cosolvent or surfactant or cyclodextrin, TFE:water 50:50, ambient temperature
  solubility: 10000 µg/mL
[6]; organic solvent or mixture, Acetone, ambient temperature
  solubility: < 1000 µg/mL
[6]; organic solvent or mixture, CAN, ambient temperature
  solubility: < 1000 µg/mL
[6]; organic solvent or mixture, EtOAc, ambient temperature
  solubility: < 1000 µg/mL
[6]; organic solvent or mixture, EtOH, ambient temperature
  solubility: < 1000 µg/mL
[6]; organic solvent or mixture, HFIPA, ambient temperature
  solubility: 10000 µg/mL
[6]; organic solvent or mixture, MeOH, ambient temperature
  solubility: 2000 µg/mL
[6]; organic solvent or mixture, MeOH:THF 50:50, ambient temperature
  solubility: 1000 µg/mL
[6]; organic solvent or mixture, TFE, ambient temperature
  solubility: 4000 µg/mL
[6]; organic solvent or mixture, THF, ambient temperature
  solubility: < 1000 µg/mL
[6]; organic solvent or mixture, chloroform, ambient temperature
  solubility: < 1000 µg/mL
[6]; organic solvent or mixture, chloroform:EtOH 50:50, ambient temperature
  solubility: < 1000 µg/mL
[6]; organic solvent or mixture, p-dioxane, ambient temperature
  solubility: < 1000 µg/mL
[6]; Water, added all at once, stirred ~24 hours
  solubility: < 4000 µg/mL
[3]; listed as Form A, hydrochloride
  TGA sharp weight loss / onset of probable decomposition: ~316 °C
[3]; prior to ~316° C.
  TGA weight loss: negligible weight loss

## CC[C@H]1CC2C[C@H]3c4[nH]c5ccc(O)cc5c4CCN(C2)C13 [Form G, noribogaine hydrochloride]
[4]
  Polymorphic form after weight loss, by XRPD: converted to Form A
[4]; listed as material G
  gravimetric weight loss: 7.95%
